The text below walks through data of patent US9637453B2, “3-spirocyclic-6-hydroxamic acid tetralins as HDAC inhibitors” (Forma Therapeutics, Inc., priority 2015, dated 2017).

pIC50: −log10 of the molar value.

The target in test [1] is T1, Full length human recombinant HDAC6 (Homo sapiens, UniProt Q9UBN7).
T1 construct: Full length human recombinant HDAC6 and HDAC11 proteins were expressed in baculoviral system
T1 sequence (Q9UBN7 1-1215): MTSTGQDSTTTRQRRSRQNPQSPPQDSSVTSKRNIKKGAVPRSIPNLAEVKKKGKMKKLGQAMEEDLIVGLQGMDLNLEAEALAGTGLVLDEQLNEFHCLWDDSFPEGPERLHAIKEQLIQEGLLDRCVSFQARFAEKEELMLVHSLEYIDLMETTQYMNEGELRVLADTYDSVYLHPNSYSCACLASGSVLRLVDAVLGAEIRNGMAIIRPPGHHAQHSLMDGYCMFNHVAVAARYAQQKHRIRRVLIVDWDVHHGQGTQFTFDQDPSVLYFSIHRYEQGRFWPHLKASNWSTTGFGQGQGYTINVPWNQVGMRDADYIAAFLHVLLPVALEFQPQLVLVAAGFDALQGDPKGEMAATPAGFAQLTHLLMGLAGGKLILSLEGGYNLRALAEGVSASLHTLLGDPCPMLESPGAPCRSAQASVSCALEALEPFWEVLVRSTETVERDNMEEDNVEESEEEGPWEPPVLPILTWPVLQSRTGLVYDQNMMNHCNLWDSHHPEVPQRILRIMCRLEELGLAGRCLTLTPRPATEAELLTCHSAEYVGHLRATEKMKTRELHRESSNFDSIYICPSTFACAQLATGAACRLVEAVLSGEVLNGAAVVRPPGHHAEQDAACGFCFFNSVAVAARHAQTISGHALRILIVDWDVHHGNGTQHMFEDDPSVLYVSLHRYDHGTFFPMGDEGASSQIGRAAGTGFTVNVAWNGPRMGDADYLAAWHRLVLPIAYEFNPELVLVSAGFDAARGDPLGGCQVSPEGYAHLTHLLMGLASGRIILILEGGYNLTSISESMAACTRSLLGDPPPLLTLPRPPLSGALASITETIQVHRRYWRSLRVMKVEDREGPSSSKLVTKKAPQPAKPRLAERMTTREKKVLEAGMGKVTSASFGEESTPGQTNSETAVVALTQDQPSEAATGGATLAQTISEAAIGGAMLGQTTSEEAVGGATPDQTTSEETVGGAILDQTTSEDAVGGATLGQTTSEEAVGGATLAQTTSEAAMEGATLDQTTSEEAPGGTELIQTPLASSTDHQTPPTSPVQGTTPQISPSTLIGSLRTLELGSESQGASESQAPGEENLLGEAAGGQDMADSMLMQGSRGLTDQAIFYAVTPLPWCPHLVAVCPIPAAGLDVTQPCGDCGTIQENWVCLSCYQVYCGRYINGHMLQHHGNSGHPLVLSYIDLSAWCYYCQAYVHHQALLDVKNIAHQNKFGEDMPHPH
Briefly: In vitro histone deacetylase assay, enzymatic HDAC6 (electrophoretic mobility shift assay). In kind it is biochemical. Particulars: 1 nM HDAC6; 2 μM peptide substrate FAM-RHKK(Ac)—NH2; 25° C.; 12 concentrations; read-out: HDAC6 Activity Range (IC50). The essentials:
(§1)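 Baculovirus-expressed full-length enzymes (HDAC6 1 nM, FAM-RHKK(Ac)-NH2; HDAC11 10 nM, FAM-RHKK(tri-fluor-Ac)-NH2), 2 μM substrate, HEPES pH 7.5, 25°C, 12-point 3× dilutions. Product/substrate separated by microfluidic mobility shift after SDS quench; IC50 from 4-parameter fit, reported as +/++/+++ bins.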
In general terms: Mobility shift assays separate free from complexed probe on a gel.

For test [2], the target named is T2, Full length human recombinant HDAC11 (Homo sapiens, UniProt Q96DB2).
T2 construct: Full length human recombinant HDAC6 and HDAC11 proteins were expressed in baculoviral system
T2 sequence (Q96DB2 1-347): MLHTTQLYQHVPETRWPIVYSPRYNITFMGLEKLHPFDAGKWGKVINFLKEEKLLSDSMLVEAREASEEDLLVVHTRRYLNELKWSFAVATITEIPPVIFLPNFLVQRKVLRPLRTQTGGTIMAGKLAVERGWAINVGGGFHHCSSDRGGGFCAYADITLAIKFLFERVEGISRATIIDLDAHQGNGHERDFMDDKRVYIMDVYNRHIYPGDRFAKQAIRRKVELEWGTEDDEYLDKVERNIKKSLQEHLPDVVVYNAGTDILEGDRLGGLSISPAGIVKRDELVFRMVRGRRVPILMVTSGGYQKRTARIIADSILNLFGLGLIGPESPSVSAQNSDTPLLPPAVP
Briefly: In vitro histone deacetylase assay, enzymatic HDAC11 (electrophoretic mobility shift assay). In kind it is biochemical. Particulars: 10 nM HDAC11; 2 μM peptide substrate FAM-RHKK(tri-fluor-Ac)—NH2; 25° C.; 12 concentrations; read-out: HDAC11 Activity Range (IC50). The essentials:
as §1

A word on the pIC50: it is the IC50 on a negative log10 scale, so that one unit is a factor of ten. Regarding `O=C(NO)c1ccc2c(c1)C[C@@]1(CC2)CCN(Cc2ccccc2OC(F)F)C1=O` [Compound I-78, (S)-1′-(2-(difluoromethoxy)benzyl)-N-hydroxy-2′-oxo-3,4-dihydro-1H-spiro[naphthalene-2,3′-pyrrolidine]-7-carboxamide], the negative logarithm of the IC50 (pIC50) in test [1] was no less than 7.00; in test [2] it was less than 6.30.

As for `CCCN1CC[C@]2(CCc3ccc(C(=O)NO)cc3C2)C1=O` [Compound I-79, (R)—N-hydroxy-2′-oxo-1′-propyl-3,4-dihydro-1H-spiro[naphthalene-2,3′-pyrrolidine]-7-carboxamide], the pIC50 in test [1] was no less than 7.00; in test [2] it was less than 6.30.

Take `O=C(NO)c1ccc2c(c1)C[C@]1(CC2)CCN(CCCO)C1=O` [Compound I-80, (R)—N-hydroxy-1′-(3-hydroxypropyl)-2′-oxo-3,4-dihydro-1H-spiro[naphthalene-2,3′-pyrrolidine]-7-carboxamide]: the figures for the pIC50 in test [1] and in test [2] were no less than 7.00 and less than 6.30, respectively.

In the case of `O=C(NO)c1ccc2c(c1)C[C@]1(CC2)CCN(CC2CCC2)C1=O` [Compound I-81, (R)-1′-(cyclobutylmethyl)-N-hydroxy-2′-oxo-3,4-dihydro-1H-spiro[naphthalene-2,3′-pyrrolidine]-7-carboxamide], the pIC50 in test [1] is no less than 7.00; in test [2] it was less than 6.30.

With `CC(C)CCN1CC[C@]2(CCc3ccc(C(=O)NO)cc3C2)C1=O` [Compound I-82, (R)—N-hydroxy-1′-isopentyl-2′-oxo-3,4-dihydro-1H-spiro[naphthalene-2,3′-pyrrolidine]-7-carboxamide], the pIC50 in test [1] was no less than 7.00; in test [2] it was 6.30 to 7.00.

`CC#CCN1CC[C@]2(CCc3ccc(C(=O)NO)cc3C2)C1=O` [Compound I-83, (R)-1′-(but-2-yn-1-yl)-N-hydroxy-2′-oxo-3,4-dihydro-1H-spiro[naphthalene-2,3′-pyrrolidine]-7-carboxamide]: the figures for the pIC50 in test [1] and in test [2] were no less than 7.00 and less than 6.30, respectively.

As to `COCCN1CC[C@]2(CCc3ccc(C(=O)NO)cc3C2)C1=O` [Compound I-84, (R)—N-hydroxy-1′-(2-methoxyethyl)-2′-oxo-3,4-dihydro-1H-spiro[naphthalene-2,3′-pyrrolidine]-7-carboxamide], the results for the pIC50 in test [1] and in test [2] were no less than 7.00 and less than 6.30, respectively.

Take `O=C(NO)c1ccc2c(c1)C[C@]1(CC2)CCN(CC2CCOCC2)C1=O` [Compound I-85, (R)—N-hydroxy-2′-oxo-1′-((tetrahydro-2H-pyran-4-yl)methyl)-3,4-dihydro-1H-spiro[naphthalene-2,3′-pyrrolidine]-7-carboxamide]: the pIC50 in test [1] is no less than 7.00; in test [2] it was less than 6.30.

As to `O=C(NO)c1ccc2c(c1)C[C@]1(CC2)CCN(C/C=C/c2ccccc2)C1=O` [Compound I-86, (R)-1′-cinnamyl-N-hydroxy-2′-oxo-3,4-dihydro-H-spiro[naphthalene-2,3′-pyrrolidine]-7-carboxamide], the pIC50 in test [1] and in test [2] was no less than 7.00 in each case.

Consider `Cc1ccccc1CN1CC[C@]2(CCc3ccc(C(=O)NO)cc3C2)C1=O` [Compound I-87, (R)—N-hydroxy-1′-(2-methylbenzyl)-2′-oxo-3,4-dihydro-1H-spiro[naphthalene-2,3′-pyrrolidine]-7-carboxamide], for which the pIC50 in test [1] and in test [2] was no less than 7.00 in each case.

For `O=C(NO)c1ccc2c(c1)C[C@]1(CC2)CCN(Cc2ccccc2C(F)(F)F)C1=O` [Compound I-88, (R)—N-hydroxy-2′-oxo-1′-(2-(trifluoromethyl)benzyl)-3,4-dihydro-1H-spiro[naphthalene-2,3′-pyrrolidine]-7-carboxamide], the pIC50 in test [1] and in test [2] was no less than 7.00 each time.

For the compound `O=C(NO)c1ccc2c(c1)C[C@]1(CC2)CCN(Cc2ccccc2Cl)C1=O` [Compound I-89, (R)-1′-(2-chlorobenzyl)-N-hydroxy-2′-oxo-3,4-dihydro-1H-spiro[naphthalene-2,3′-pyrrolidine]-7-carboxamide], the pIC50 in test [1] and in test [2] was no less than 7.00 in each case.

As for `O=C(NO)c1ccc2c(c1)C[C@]1(CC2)CCN(Cc2ccccc2OC(F)(F)F)C1=O` [Compound I-90, (R)—N-hydroxy-2′-oxo-1′-(2-(trifluoromethoxy)benzyl)-3,4-dihydro-1H-spiro[naphthalene-2,3′-pyrrolidine]-7-carboxamide], the pIC50 in test [1] and in test [2] was no less than 7.00 in each case.

In the case of `O=C(NO)c1ccc2c(c1)C[C@]1(CC2)CCN(Cc2ccc3nonc3c2)C1=O` [Compound I-91, (R)-1′-(benzo[c][1,2,5]oxadiazol-5-ylmethyl)-N-hydroxy-2′-oxo-3,4-dihydro-1H-spiro[naphthalene-2,3′-pyrrolidine]-7-carboxamide], the pIC50 in test [1] and in test [2] was no less than 7.00 each time.

On to `O=C(NO)c1ccc2c(c1)C[C@]1(CC2)CCN(CC(=O)N2CCOCC2)C1=O` [Compound I-92, (R)—N-hydroxy-1′-(2-morpholino-2-oxoethyl)-2′-oxo-3,4-dihydro-1H-spiro[naphthalene-2,3′-pyrrolidine]-7-carboxamide], for which the pIC50 in test [1] was no less than 7.00; in test [2], less than 6.30.

As to `COc1ccccc1CN1CC[C@]2(CCc3ccc(C(=O)NO)cc3C2)C1=O` [Compound I-93, (R)—N-hydroxy-1′-(2-methoxybenzyl)-2′-oxo-3,4-dihydro-1H-spiro[naphthalene-2,3′-pyrrolidine]-7-carboxamide], the pIC50 was no less than 7.00 in test [1] and 6.30 to 7.00 in test [2].

`O=C(NO)c1ccc2c(c1)C[C@]1(CC2)CCN(Cc2cc(Cl)ccc2Cl)C1=O` [Compound I-94, (R)-1′-(2,5-dichlorobenzyl)-N-hydroxy-2′-oxo-3,4-dihydro-1H-spiro[naphthalene-2,3′-pyrrolidine]-7-carboxamide]: the negative-log IC50 (pIC50) in test [1] and in test [2] was no less than 7.00 throughout.

Take `O=C(NO)c1ccc2c(c1)C[C@]1(CC2)CCN(Cc2c(Cl)cccc2Cl)C1=O` [Compound I-95, (R)-1′-(2,6-dichlorobenzyl)-N-hydroxy-2′-oxo-3,4-dihydro-1H-spiro[naphthalene-2,3′-pyrrolidine]-7-carboxamide]: the results for the pIC50 in test [1] and in test [2] were no less than 7.00 and less than 6.30, respectively.

Take `COc1cccc(CN2CC[C@]3(CCc4ccc(C(=O)NO)cc4C3)C2=O)c1` [Compound I-96, (R)—N-hydroxy-1′-(3-methoxybenzyl)-2′-oxo-3,4-dihydro-1H-spiro[naphthalene-2,3′-pyrrolidine]-7-carboxamide]: the pIC50 is no less than 7.00 in test [1] and 6.30 to 7.00 in test [2].

`O=C(NO)c1ccc2c(c1)C[C@]1(CC2)CCN(Cc2cccnc2)C1=O` [Compound I-97, (R)—N-hydroxy-2′-oxo-1′-(pyridin-3-ylmethyl)-3,4-dihydro-1H-spiro[naphthalene-2,3′-pyrrolidine]-7-carboxamide]: the pIC50 was no less than 7.00 in test [1] and less than 6.30 in test [2].

For the compound `O=C(NO)c1ccc2c(c1)C[C@]1(CC2)CCN(Cc2ccccn2)C1=O` [Compound I-98, (R)—N-hydroxy-2′-oxo-1′-(pyridin-2-ylmethyl)-3,4-dihydro-1H-spiro[naphthalene-2,3′-pyrrolidine]-7-carboxamide], the values for the pIC50 in test [1] and in test [2] were no less than 7.00 and less than 6.30, respectively.
